In this test the target is T1, MLK3 (Homo sapiens, UniProt Q16584).
T1 construct: purchased Dundee DU8313
T1 sequence (Q16584 whole entry): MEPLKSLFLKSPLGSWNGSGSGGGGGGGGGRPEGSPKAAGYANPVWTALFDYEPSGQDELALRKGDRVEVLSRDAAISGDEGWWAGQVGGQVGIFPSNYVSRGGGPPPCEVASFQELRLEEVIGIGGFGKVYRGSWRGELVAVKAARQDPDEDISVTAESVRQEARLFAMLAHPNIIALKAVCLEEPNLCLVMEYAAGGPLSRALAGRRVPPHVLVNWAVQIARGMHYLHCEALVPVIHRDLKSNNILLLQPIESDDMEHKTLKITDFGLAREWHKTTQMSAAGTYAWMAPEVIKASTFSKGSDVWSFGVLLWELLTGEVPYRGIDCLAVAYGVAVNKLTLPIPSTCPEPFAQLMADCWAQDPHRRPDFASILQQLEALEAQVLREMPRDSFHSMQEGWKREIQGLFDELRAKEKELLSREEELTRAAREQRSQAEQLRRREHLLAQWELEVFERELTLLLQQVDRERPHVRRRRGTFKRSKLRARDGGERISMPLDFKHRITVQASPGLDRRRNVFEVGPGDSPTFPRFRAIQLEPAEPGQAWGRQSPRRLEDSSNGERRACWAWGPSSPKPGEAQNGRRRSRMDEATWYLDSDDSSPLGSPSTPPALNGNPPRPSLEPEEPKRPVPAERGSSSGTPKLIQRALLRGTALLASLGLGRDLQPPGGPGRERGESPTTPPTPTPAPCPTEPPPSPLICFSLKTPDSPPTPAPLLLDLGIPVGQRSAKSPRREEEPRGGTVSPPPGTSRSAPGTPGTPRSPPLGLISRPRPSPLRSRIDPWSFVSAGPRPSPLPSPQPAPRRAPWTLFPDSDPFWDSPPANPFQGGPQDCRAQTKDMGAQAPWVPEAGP
In words: Radiometric filter plate MLK3 assay. Note: 2 µM cold ATP (Km). The format is biochemical. The settings on record: read-out: MK3 IC50. How it is done:
After a twenty minute incubation, the reactions were washed through filter plates and read on a scintillation counter. Results are shown in Table 10 below, in which +++ indicates ≦0.1 μM, ++ indicates >0.1 μM and ≦1 μM, and + indicates >1 μM.
For the compound `COc1cc(-c2cnc3c(c2)C(=Cc2cccc(C#N)c2)C(=O)N3)cc(OC)c1OC` (mixture of isomers) [Example 134, 3-[2-oxo-5-(3,4,5-trimethoxy-phenyl)-1,2-dihydro-pyrrolo[2,3-b]pyridin-3-ylidenemethyl]-benzonitrile], the IC50 is greater than 1000 nM.

For the compound `COc1cc(-c2cnc3c(c2)C(=Cc2ccncc2)C(=O)N3)cc(OC)c1OC` (single isomer, unassigned) [Example 129, (E)- and (Z)-3-pyridin-4-ylmethylene-5-(3,4,5-trimethoxy-phenyl)-1,3-dihydro-pyrrolo[2,3-b]pyridin-2-one], the IC50 was greater than 1000 nM.

As to `CC(=O)Nc1ccc(-c2cnc3[nH]cc(-c4ccc5[nH]ccc5c4)c3c2)cc1` [Example 3, N-(4-(3-(1H-indol-5-yl)-1H-pyrrolo[2,3-b]pyridin-5-yl)phenyl)acetamide], the IC50 was less than 100 nM.

Consider `COc1cc(-c2cnc3[nH]cc(-c4ccc5[nH]ccc5c4)c3c2)ccc1N` [Example 5, 4-(3-(1H-indol-5-yl)-1H-pyrrolo[2,3-b]pyridin-5-yl)-2-methoxyaniline], for which the half-maximal inhibitory concentration (IC50) is less than 100 nM.

Take `CN1CCN(c2cc(-c3cnc4[nH]cc(-c5ccc6[nH]ccc6c5)c4c3)ccn2)CC1` [Example 7, 3-(1H-indol-5-yl)-5-(2-(4-methylpiperazin-1-yl)pyridin-4-yl)-1H-pyrrolo[2,3-b]pyridine]: the concentration for half-maximal inhibition (IC50) was less than 100 nM.

As for `Nc1ccc(-c2cnc3[nH]cc(-c4ccc5[nH]ccc5c4)c3c2)cc1` [Example 8, 4-(3-(1H-indol-5-yl)-1H-pyrrolo[2,3-b]pyridin-5-yl)aniline], the concentration for half-maximal inhibition (IC50) is less than 100 nM.

As for `CS(=O)(=O)Nc1ccc(-c2cnc3[nH]cc(-c4ccc5[nH]ccc5c4)c3c2)cc1` [Example 11, N-(4-(3-(1H-indol-5-yl)-1H-pyrrolo[2,3-b]pyridin-5-yl)phenyl)methanesulfonamide], the half-maximal inhibitory concentration (IC50) is less than 100 nM.

Turning to `COc1cc(-c2cnc3[nH]cc(-c4ccc(N)cc4)c3c2)cc(OC)c1OC` [Example 15, 4-(5-(3,4,5-trimethoxyphenyl)-1H-pyrrolo[2,3-b]pyridin-3-yl)aniline], the IC50 is less than 100 nM.

As for `COc1cc(-c2cnc3[nH]cc(-c4ccc(NC(C)=O)cc4)c3c2)cc(OC)c1OC` [Example 16, N-(4-(5-(3,4,5-trimethoxyphenyl)-1H-pyrrolo[2,3-b]pyridin-3-yl)phenyl)acetamide], the IC50 is less than 100 nM.

For `COc1cc(-c2cnc3[nH]cc(-c4ccc(N(C)C)nc4)c3c2)cc(OC)c1OC` [Example 19, N,N-dimethyl-5-(5-(3,4,5-trimethoxyphenyl)-1H-pyrrolo[2,3-b]pyridin-3-yl)pyridin-2-amine], the IC50 is less than 100 nM.

For `Nc1ncc(-c2cnc3[nH]cc(-c4cnc(N)nc4)c3c2)cn1` [Example 20, 5,5′-(1H-pyrrolo[2,3-b]pyridine-3,5-diyl)dipyrimidin-2-amine], the IC50 is greater than 1000 nM.

Take `CN(C)c1ccc(-c2cnc3[nH]cc(-c4ccc(F)c(Cl)c4)c3c2)cn1` [Example 22, 5-(3-(3-chloro-4-fluorophenyl)-1H-pyrrolo[2,3-b]pyridin-5-yl)-N,N-dimethylpyridin-2-amine]: the IC50 is greater than 1000 nM.

Consider `COc1cc(-c2cnc3[nH]cc(-c4ccc5c(ccn5C)c4)c3c2)cc(OC)c1OC` [Example 24, 3-(1-methyl-1H-indol-5-yl)-5-(3,4,5-trimethoxyphenyl)-1H-pyrrolo[2,3-b]pyridine], for which the IC50 was less than 100 nM.

Take `COc1cc(-c2cnc3[nH]cc(-c4ccc(C(N)=O)cc4)c3c2)cc(OC)c1OC` [Example 25, 4-(5-(3,4,5-trimethoxyphenyl)-1H-pyrrolo[2,3-b]pyridin-3-yl)benzamide]: the IC50 was less than 100 nM.

For the compound `COc1ccc(-c2cnc3[nH]cc(-c4ccc(C(N)=O)cc4)c3c2)cc1OC` [Example 26, 4-(5-(3,4-dimethoxyphenyl)-1H-pyrrolo[2,3-b]pyridin-3-yl)benzamide], the IC50 was less than 100 nM.

Turning to `Nc1ccc(-c2cnc3[nH]cc(-c4ccc(F)c(Cl)c4)c3c2)cn1` [Example 29, 5-(3-(3-chloro-4-fluorophenyl)-1H-pyrrolo[2,3-b]pyridin-5-yl)pyridin-2-amine], the IC50 was greater than 1000 nM.

`c1cc2cc(-c3c[nH]c4ncc(-c5ccc(NCCN6CCCC6)nc5)cc34)ccc2[nH]1` [Example 31, 5-(3-(1H-indol-5-yl)-1H-pyrrolo[2,3-b]pyridin-5-yl)-N-(2-(pyrrolidin-1-yl)ethyl)pyridin-2-amine]: the IC50 was 100 to 1000 nM.

Take `CN(C)Cc1ccc(-c2cnc3[nH]cc(-c4ccc5[nH]ccc5c4)c3c2)cc1` [Example 33, 1-(4-(3-(1H-indol-5-yl)-1H-pyrrolo[2,3-b]pyridin-5-yl)phenyl)-N,N-dimethylmethanamine]: the IC50 is less than 100 nM.

For `COc1cc(-c2cnc3[nH]cc(-c4ccc5[nH]ccc5c4)c3c2)ccc1OCCN(C)C` [Example 35, 2-(4-(3-(1H-indol-5-yl)-1H-pyrrolo[2,3-b]pyridin-5-yl)-2-methoxyphenoxy)-N,N-dimethylethanamine], the IC50 was greater than 1000 nM.

As for `COc1ccc(-c2cnc3[nH]cc(-c4ccc5[nH]ccc5c4)c3n2)cc1OC` [Example 37, 2-(3,4-dimethoxyphenyl)-7-(1H-indol-5-yl)-5H-pyrrolo[3,2-b]pyrazine], the 50% inhibitory concentration (IC50) was less than 100 nM.

For the compound `COc1cc(-c2cnc3[nH]cc(-c4ccc5[nH]ccc5c4)c3n2)ccc1N` [Example 38, 4-(7-(1H-indol-5-yl)-5H-pyrrolo[3,2-b]pyrazin-2-yl)-2-methoxyaniline], the 50% inhibitory concentration (IC50) was less than 100 nM.

Consider `COc1cc(-c2cnc3[nH]cc(-c4ccc5[nH]ccc5c4)c3n2)ccc1OCCN1CCOCC1` [Example 39, 4-(2-(4-(7-(1H-indol-5-yl)-5H-pyrrolo[3,2-b]pyrazin-2-yl)-2-methoxyphenoxy)ethyl)morpholine], for which the IC50 is less than 100 nM.

As to `COc1cc(-c2cnc3[nH]c(=O)n(-c4ccc5[nH]ccc5c4)c3n2)cc(OC)c1OC` [Example 40, 1-(1H-indol-5-yl)-6-(3,4,5-trimethoxyphenyl)-1H-imidazo[4,5-b]pyrazin-2(3H)-one], the IC50 was less than 100 nM.

Take `Cn1ccc2cc(-n3c(=O)[nH]c4ncc(-c5ccc(O)cc5)nc43)ccc21` [Example 42, 6-(4-hydroxyphenyl)-1-(1-methyl-1H-indol-5-yl)-1H-imidazo[4,5-b]pyrazin-2(3H)-one]: the concentration for half-maximal inhibition (IC50) was greater than 1000 nM.

Turning to `Cc1cc(C)cc(-c2cnc3[nH]c(=O)n(-c4ccc5c(ccn5C)c4)c3n2)c1` [Example 43, 6-(3,5-dimethylphenyl)-1-(1-methyl-1H-indol-5-yl)-1H-imidazo[4,5-b]pyrazin-2(3H)-one], the 50% inhibitory concentration (IC50) was greater than 1000 nM.

As to `O=c1[nH]c2ncc(-c3ccncc3)nc2n1-c1ccc2[nH]ccc2c1` [Example 44, 1-(1H-indol-5-yl)-6-(pyridin-4-yl)-1H-imidazo[4,5-b]pyrazin-2(3H)-one], the IC50 was greater than 1000 nM.

Turning to `Cc1cc(C)cc(-c2cnc3[nH]c(=O)n(-c4ccc5[nH]ccc5c4)c3n2)c1` [Example 46, 6-(3,5-dimethylphenyl)-1-(1H-indol-5-yl)-1H-imidazo[4,5-b]pyrazin-2(3H)-one], the IC50 is greater than 1000 nM.

In the case of `O=c1[nH]c2ncc(-c3cc(Cl)cc(Cl)c3)nc2n1-c1ccc2[nH]ccc2c1` [Example 48, 6-(3,5-dichlorophenyl)-1-(1H-indol-5-yl)-1H-imidazo[4,5-b]pyrazin-2(3H)-one], the IC50 is greater than 1000 nM.

With `COc1ccc(-c2cnc3[nH]c(=O)n(-c4ccc5[nH]ccc5c4)c3n2)cc1F` [Example 49, 6-(3-fluoro-4-methoxyphenyl)-1-(1H-indol-5-yl)-1H-imidazo[4,5-b]pyrazin-2(3H)-one], the 50% inhibitory concentration (IC50) is greater than 1000 nM.

Regarding `COc1cc(-c2cnc3[nH]c(=O)n(-c4ccc5[nH]ccc5c4)c3n2)ccc1O` [Example 55, 6-(4-hydroxy-3-methoxyphenyl)-1-(1H-indol-5-yl)-1H-imidazo[4,5-b]pyrazin-2(3H)-one], the concentration for half-maximal inhibition (IC50) is less than 100 nM.

For `O=c1[nH]c2ncc(-c3ccc4cc[nH]c4c3)nc2n1-c1ccc2[nH]ccc2c1` [Example 56, 1-(1H-indol-5-yl)-6-(1H-indol-6-yl)-1H-imidazo[4,5-b]pyrazin-2(3H)-one], the IC50 was greater than 1000 nM.

Regarding `COc1cc(-c2cnc3[nH]c(=O)n(-c4ccc5[nH]ccc5c4)c3n2)ccc1OCCN1CCOCC1` [Example 57, 1-(1H-indol-5-yl)-6-(3-methoxy-4-(2-morpholinoethoxy)phenyl)-1H-imidazo[4,5-b]pyrazin-2(3H)-one], the IC50 is less than 100 nM.

Regarding `O=c1[nH]c2ncc(-c3cc(F)c(O)c(F)c3)nc2n1-c1ccc2[nH]ccc2c1` [Example 59, 6-(3,5-difluoro-4-hydroxyphenyl)-1-(1H-indol-5-yl)-1H-imidazo[4,5-b]pyrazin-2(3H)-one], the IC50 was less than 100 nM.

As for `COc1cc(-c2cnc3[nH]c(=O)n(-c4ccc5[nH]ccc5c4)c3n2)ccc1N` [Example 60, 6-(4-amino-3-methoxyphenyl)-1-(1H-indol-5-yl)-1H-imidazo[4,5-b]pyrazin-2(3H)-one], the IC50 is less than 100 nM.

As to `O=c1[nH]c2ncc(-c3cc(F)cc(F)c3)nc2n1-c1ccc2[nH]ccc2c1` [Example 61, 6-(3,5-difluorophenyl)-1-(1H-indol-5-yl)-1H-imidazo[4,5-b]pyrazin-2(3H)-one], the IC50 is greater than 1000 nM.

As for `COc1cc(-c2cnc3[nH]c(=O)n(-c4ccc5[nH]ccc5c4)c3n2)cc(OC)c1O` [Example 62, 6-(4-hydroxy-3,5-dimethoxyphenyl)-1-(1H-indol-5-yl)-1H-imidazo[4,5-b]pyrazin-2(3H)-one], the concentration for half-maximal inhibition (IC50) was less than 100 nM.

Consider `COc1cc(OC)cc(-c2cnc3[nH]c(=O)n(-c4ccc5[nH]ccc5c4)c3n2)c1` [Example 65, 6-(3,5-dimethoxyphenyl)-1-(1H-indol-5-yl)-1H-imidazo[4,5-b]pyrazin-2(3H)-one], for which the IC50 is greater than 1000 nM.

Turning to `CN1CCN(c2cc(-c3cnc4[nH]c(=O)n(-c5ccc6[nH]ccc6c5)c4n3)ccn2)CC1` [Example 66, 1-(1H-indol-5-yl)-6-(2-(4-methylpiperazin-1-yl)pyridin-4-yl)-1H-imidazo[4,5-b]pyrazin-2(3H)-one], the IC50 was greater than 1000 nM.

The values are drawn from patent US8846909B2, “Bicyclic heteroaryl kinase inhibitors and methods of use” (University of Rochester, priority 2010, dated 2014).
